Measurements: patent US20100075984A1, “DICARBONYLIC COMPOUNDS WITH ANTIBACTERIAL ACTIVITY” (LABORATORIOS SALVAT, S.A., priority 2006, published 2010)
Converted amounts (≈) assume the structure as drawn.

Key:
[1] = tested on: Staphylococcus aureus (BCM-012); experiment: Antimicrobial activity, microdilution in microtiter plate (MIC); type: cell-based; details: Staphylococcus aureus BCM-012 (SALVAT collection); two-fold serial dilutions, 96 well plates; incubation 24 h at 35° C.
Description: (§1) In order to assess the antimicrobial activity of the compounds of the present invention a method of microdilution in microtiter plate was used. The compounds were diluted in a nutritious medium and, subsequently, distributed by two-fold serial dilutions in 96 well plates. Then, plates were inoculated with a bacterial suspension. After incubation for 24 h at 35° C. the minimum inhibitory concentration (MIC) of the drug in μg/mL was determined as the lowest concentration of compound which inhibits the growth of the bacterium. Results included in table 7 illustrate the antimicrobial activity of some of the compounds of the present invention in comparison with thus obtained with two compounds (linezolid and eperezolid) of a known antimicrobial activity. The antimicrobial activity of the compound versus Streptococcus faecalis (BCM-010, strain designation as for SALVAT collection) and Staphylococcus aureus (BCM-012, strain designation as for SALVAT collection), respectively, is shown in the different columns.

[2] = tested on: Streptococcus faecalis (BCM-010); experiment: as above; type: cell-based; details: Streptococcus faecalis BCM-010 (SALVAT collection), two-fold serial dilutions, 96 well plates, incubation 24 h at 35° C.; for MIC: Enterococcus faecalis
Description: as §1

BCM-012 MIC [1] [µg/mL] | BCM-010 MIC [2] [µg/mL] | MIC [1] [µg/mL] | MIC [2] [µg/mL] | SMILES
1 | 2 |  |  | C#CCn1c(C)nc2cc(C(=O)NCC(=O)N3CCN(c4ccc(-c5cc(CNc6ccon6)on5)cc4F)CC3)ccc21 [I_84]
1 | 1 |  |  | Cc1ncc(-c2cccc(C(=O)NCC(=O)N3CCN(c4ccc(-c5cc(CNc6ccon6)on5)cc4F)CC3)c2)s1 [I_51]
0.25 to 0.5 | 0.25 to 0.5 |  |  | O=C(NCC(=O)N1CCN(c2ccc(-c3cc(CNc4ccon4)on3)cc2F)CC1)c1cccc(O)c1 [I_15]
2 | 2 |  |  | Cc1nc2cc(C(=O)NCC(=O)N3CCN(c4ccc(-c5cc(CNc6ccon6)on5)cc4F)CC3)ccc2n1CC1CC1 [I_82]
0.25 | 0.25 |  |  | O=C(NCC(=O)N1CCN(c2c(F)cc(-c3cc(CNc4ccon4)on3)cc2F)CC1)c1ccc2cccc(O)c2n1 [I_160]
0.25 to 0.5 | 0.25 to 0.5 |  |  | Nc1ccc(C(=O)NCC(=O)N2CCN(c3ccc(-c4cc(CNc5ccon5)on4)cc3F)CC2)c(O)c1 [I_32]
 |  | 1 (≈ 1.77 µM) | 2 (≈ 3.54 µM) | O=C(NCC(=O)N1CCN(c2ccc(-c3cc(CNc4ccon4)on3)cc2F)CC1)Nc1ccc([N+](=O)[O-])cc1 [Ia_1, 1-[2-(4-{2-Fluoro-4-[5-(isoxazol-3-ylaminomethyl)isoxazol-3-yl]phenyl}piperazin-1-yl)-2-oxoethyl]-3-(4-nitrophenyl)urea]
1 | 1 |  |  | CC(=O)Nc1ccc(C(=O)NCC(=O)N2CCN(c3ccc(-c4cc(CNc5ccon5)on4)cc3F)CC2)cn1 [I_117]
0.25 | 0.5 to 1 |  |  | O=C(NCC(=O)N1CCN(c2ccc(-c3cc(CNc4ccon4)on3)cc2F)CC1)c1ccc([N+](=O)[O-])o1 [I_58]
2 | 2 |  |  | CNCC(=O)NCC(=O)N1CCN(c2ccc(-c3cc(CNc4ccon4)on3)cc2F)CC1 [I_152]
1 | 2 |  |  | O=CNCC(=O)N1CCN(c2ccc(-c3cc(CNc4ccon4)on3)cc2F)CC1 [I_1]

Continued, compound first:

SMILES | BCM-012 MIC [1] [µg/mL] | BCM-010 MIC [2] [µg/mL] | MIC [1] [µg/mL] | MIC [2] [µg/mL]
CC(=O)NC[C@H]1CN(c2ccc(N3CCN(C(=O)CO)CC3)c(F)c2)C(=O)O1 [Eperezolid, eperezolid, reference compound] |  |  | 2 (≈ 5.07 µM) | 4 (≈ 10.1 µM)
C[C@@H](NC(=O)c1ncccc1N)C(=O)N1CCN(c2ccc(-c3cc(CNc4ccon4)on3)cc2F)CC1 [I_171] | 2 | 1 |  | 
O=C(NCC(=O)N1CCN(c2ccc(-c3cc(CO)on3)cc2F)CC1)c1ccc2cccc(O)c2n1 [I_192] | 0.5 | 0.5 |  | 
CC(=O)NC[C@H]1CN(c2ccc(N3CCOCC3)c(F)c2)C(=O)O1 [Linezolid, linezolid, reference compound] |  |  | 2 (≈ 5.93 µM) | 4 (≈ 11.9 µM)
O=C(NC(C(=O)N1CCN(c2ccc(-c3cc(CNc4ccon4)on3)cc2F)CC1)c1ccccc1)c1ccc2[nH]cnc2c1 (centres unmarked) [I_153] | 2 | 2 |  | 
Cc1ccc(C(=O)N[C@@H](C)C(=O)N2CCN(c3ccc(-c4cc(CO)on4)cc3F)CC2)cn1 [I_213] | 1 | 1 |  | 
Cc1ccc(C(=O)N[C@H](C(=O)N2CCN(c3ccc(-c4cc(CNc5ccon5)on4)cc3F)CC2)C(C)C)cn1 [I_170] | 4 | 4 |  | 
CN(CC(=O)N1CCN(c2ccc(-c3cc(CNc4ccon4)on3)cc2F)CC1)C(=O)c1ccc2[nH]cnc2c1 [I_155] | 2 | 2 |  | 
